Each structure is given as a SMILES string. Where a name gives a salt, the structure may show the parent alone.

Holding throughout (format): biochemical
Assay [1] in a line: Pro-Drug DTNB assay with or without esterase. Particulars: for Reduction Without Esterase / Reduction With Esterase: 22.5 μM prodrug, 100 μM DTNB; for Reduction Without Esterase: pH 7.5, no enzyme; for Reduction With Esterase: pH 7.5, porcine liver esterase. As for the experimental part: The present invention provides a series of mucolytic pro-drugs (see R^6=other than H) that are activated by common enzymes that are present in the extracellular milieu (e.g., nucelotidases, phosphatases, and esterases). As a proof-of-concept, the reducing kinetics of the pro-drug compound 46 in the presence or absence of an activating esterase were tested.
This assay was designed to determine whether prodrug caps added on to our monothiol mucolytic compounds can be cleaved from the molecule. If so, the outcome would be an “active” compound that is able to reduce the S—S bond in DTNB. Similar to the activity concentration version of the DTNB assay described above, monothiol prodrugs were mixed at a final concentration of 22.5 μM with excess DTNB (100 μM final) in 1 mL 50 mM Tris-HCl buffer (pH 7.5) and maximum Abs412 was measured. In the absence of a purified hydrolytic enzyme (e.g. porcine liver esterase; Sigma), the amount of DTNB cleavage observed is an indicator for stability of the cap on the prodrug compound (i.e. if the prodrug remains intact in solution the Abs412=0). Next, 5 uL of esterase (bought as an ammonium sulfate suspension that is subsequently centrifuged to isolate the esterase and then dissolved in reaction buffer prior to assaying) is combined with excess DTNB (100 μM final) and 22.5 μM pro-drug in 1 mL 50 mM Tris-HCl buffer (pH 7.5). Cleavage of the prodrug cap can be visualized in real time via DTNB cleavage at Abs412 by the esterase-liberated monothiol molecule.

A short description of assay [2]: DTNB assay: rate of S-S bond reduction. Particulars: pH 6; 22.5 μM reducing agent, 45 μM DTNB, 50 mM Tris-HCl. The text has this: Thiol-containing compounds, such as the monothiol mucolytic agents described in this patent, can react with DTNB (5,5-Dithiobis(2-nitrobenzoic acid)) resulting in the cleavage of its single S—S bond. The DTNB assay serves a dual purpose in our analysis of monothiol compounds, as it can (1) be used to determine the “active concentration” of the mucolytic compounds (what amount of the compound in a reaction is able to cleave S—S bonds) and (2) to assess the rate that the compound can cleave S—S bonds. When cleaved, the resulting compound, NTB (2-nitro-5-thiobenzoate), is a colored product that is measured spectrophotometrically at an absorbance of 412 nm (Abs412). Using the molar extinction coefficient of NTB and measured maximum Abs412, the molar amount of DTNB that reacted with our mucolytic agents can be calculated. Monothiol mucolytic compounds react at a 1:1 stoichiometric ratio with DTNB (i.e. 1 mole of NTB is produced when 1 mole of DTNB is reacted with 1 mole of a monothiol reducing agent). To define the activity concentration of a compound, a final concentration of 22.5 μM mucolytic reducing agent was combined with an excess of DTNB (100 μM) in 1 mL 50 mM Tris-HCl buffer (pH 7.5). Maximum Abs412 was measured and then utilized to calculate the activity concentration. If observed activity concentrations differed from expected activity concentrations by more than 5%, the amount of the compound added to each reaction was accordingly adjusted to kinetically test the reducing rate in the next step. To determine rate of mucolytic reducing activity, 22.5 μM active reducing agent is combined with 45 μM DTNB in 1 mL 50 mM Tris-HCl buffer over a pH range (6.0-7.5). Abs412 is recorded in real time upon addition of the compound and rates were calculated using 2nd order kinetic parameters.

A further assay deals with T1, Muc5B (Homo sapiens, UniProt Q9HC84).
T1 construct: Various mucin-containing substrates (e.g. saliva, harvested HBE mucus, and disease sputum) treated with our monothiol mucolytic compounds; from tissue; host or cells: saliva; harvested HBE mucus; disease sputum
In words: Mucin agarose gel western blot (saliva / mucus samples). Particulars: for MUC5B reduction: human mucus samples. The procedure:
Various mucin-containing substrates (e.g. saliva, harvested HBE mucus, and disease sputum) treated with our monothiol mucolytic compounds are quenched upon completion of the treatment period with a 10-fold excess of N-ethylmaleimide in order to alkylate any remaining active compound and to prevent further mucin reduction. A 10× concentrated sample loading buffer is diluted into each sample (1×TAE/5% glycerol/0.1% SDS/Bromophenol Blue). Samples ([…]) were analyzed by electrophoresis on 0.9% agarose gels using a buffer system consisting of 1×TAE/0.1% SDS. The agarose gel was soaked for 15 min in 4×SSC (0.6 M NaCl, 60 mM Tri-sodium citrate dehydrate) containing 10 mM DTT before transferring the samples from the gel onto a nitrocellulose membrane by vacuum blotter. Unreduced and reduced Muc5B were visualized on a LiCor Odyssey imaging detection system using a polyclonal antibody directed towards Muc5B.
On the technique in general: Immunoblotting shows a protein as a band on a membrane.

Take `Cl.O=C(SCc1cccc(OCCN(C[C@H](O)[C@@H](O)[C@H](O)[C@H](O)CO)C[C@H](O)[C@@H](O)[C@H](O)[C@H](O)CO)c1)c1ccco1` [Compound 9, S-3-(2-(bis((2S,3R,4R,5R)-2,3,4,5,6-pentahydroxyhexyl)amino)ethoxy)benzyl furan-2-carbothioate Hydrochloride]: in assay [1], the “Reduction Without Esterase” value is “No” and the “Reduction With Esterase” value was “Yes”.
On the same counts, the results for `Cl.O=C(SCc1cccc(OCCN(C[C@@H](O)[C@@H](O)[C@H](O)[C@H](O)CO)C[C@@H](O)[C@@H](O)[C@H](O)[C@H](O)CO)c1)c1ccco1` [Compound 10, S-3-(2-(bis((2R,3R,4R,5R)-2,3,4,5,6-pentahydroxyhexyl)amino)ethoxy)benzylfuran-2-carbothioate Hydrochloride] are “No” and “Yes”.
On the same counts, the results for `CC(C)C(=O)SCc1cccc(OCCN(C[C@H](O)[C@@H](O)[C@H](O)[C@H](O)CO)C[C@H](O)[C@@H](O)[C@H](O)[C@H](O)CO)c1` [Compound 14, S-3-(2-(bis((2S,3R,4R,5R)-2,3,4,5,6-entahydroxyhexyl)amino)ethoxy)benzyl 2-methylpropanethioate Hydrochloride] are “No” and “Yes”.
On the same counts, the results for `CC(C)C(=O)SCc1cccc(OCCN(C[C@@H](O)[C@@H](O)[C@H](O)[C@H](O)CO)C[C@@H](O)[C@@H](O)[C@H](O)[C@H](O)CO)c1.Cl` [Compound 15a, S-3-(2-(bis((2R,3R,4R,5R)-2,3,4,5,6-pentahydroxyhexyl)amino)ethoxy)benzyl 2-methylpropanethioate Hydrochloride] are “No” and “Yes”.
`CC(=O)SCc1cccc(OCCN(C[C@H](O)[C@@H](O)[C@H](O)[C@H](O)CO)C[C@H](O)[C@@H](O)[C@H](O)[C@H](O)CO)c1.Cl` [Compound 17, S-3-(2-(bis((2S,3R,4R,5R)-2,3,4,5,6-pentahydroxyhexyl)amino)ethoxy)benzyl Ethanethioate Hydrochloride]: in assay [1], the “Reduction Without Esterase” value is on record as “No” and the “Reduction With Esterase” value was “Yes”.
In the case of `CC(=O)SCc1cccc(OCCN(C[C@@H](O)[C@@H](O)[C@H](O)[C@H](O)CO)C[C@@H](O)[C@@H](O)[C@H](O)[C@H](O)CO)c1` [Compound 18, S-3-(2-(bis((2R,3R,4R,5R)-2,3,4,5,6-pentahydroxyhexyl)amino)ethoxy)benzyl Ethanethioate], in assay [1], the “Reduction Without Esterase” value is recorded as “No” and the “Reduction With Esterase” value is recorded as “Yes”.
The compound `Cl.OC[C@@H](O)[C@@H](O)[C@H](O)[C@@H](O)CN(CCOc1cccc(CS)c1)C[C@H](O)[C@@H](O)[C@H](O)[C@H](O)CO` [Compound 19, (2R,2′R,3R,3′R,4R,4′R,5S,5′S)-6,6′-((2-(3-(mercaptomethyl)phenoxy)ethyl)azanediyl)bis(hexane-1,2,3,4,5-pentaol) Hydrochloride] showed a DTNB reduction rate in assay [2] of 182.52 M⁻¹ s⁻¹.
The same measure, in the same setting: for `Cl.OC[C@@H](O)[C@@H](O)[C@H](O)[C@H](O)CN(CCOc1cccc(CS)c1)C[C@@H](O)[C@@H](O)[C@H](O)[C@H](O)CO` [Compound 20, (2R,2′R,3R,3′R,4R,4′R,5R,5′R)-6,6′-((2-(3-(mercaptomethyl)phenoxy)ethyl)azanediyl)bis(hexane-1,2,3,4,5-pentaol) Hydrochloride] the value was 307.08 M⁻¹ s⁻¹.
For the compound `CCC(=O)SCc1cccc(OCCN(C[C@H](O)[C@@H](O)[C@H](O)[C@H](O)CO)C[C@H](O)[C@@H](O)[C@H](O)[C@H](O)CO)c1.Cl` [Compound 24, S-3-(2-(bis((2S,3R,4R,5R)-2,3,4,5,6-pentahydroxyhexyl)amino)ethoxy)benzyl Propanethioate Hydrochloride], in assay [1], the “Reduction Without Esterase” value is “No” and the “Reduction With Esterase” value is listed as “Yes”.
On the same counts, the results for `CCC(=O)SCc1cccc(OCCN(C[C@@H](O)[C@@H](O)[C@H](O)[C@H](O)CO)C[C@@H](O)[C@@H](O)[C@H](O)[C@H](O)CO)c1.Cl` [Compound 25, S-3-(2-(bis((2R,3R,4R,5R)-2,3,4,5,6-pentahydroxyhexyl)amino)ethoxy)benzyl Propanethioate Hydrochloride] are “No” and “Yes”.
`CC(=O)SCc1ccc(OCCCCCCN(C[C@H](O)[C@@H](O)[C@H](O)[C@H](O)CO)C[C@H](O)[C@@H](O)[C@H](O)[C@H](O)CO)cc1.Cl` [Compound 46, S-4-((6-(bis((2S,3R,4R,5R)-2,3,4,5,6-pentahydroxyhexyl)amino)hexyl)oxy)benzyl Ethanethioate Hydrochloride]: in assay [1], the “Reduction Without Esterase” value is listed as “No” and the “Reduction With Esterase” value is given as “Yes”. Further, in assay [1] (absence of activating esterase), the “reduction of disulfide bonds by pro-drug alone” value is recorded as “does not reduce disulfide”. Besides, the “reaction rates on addition of activating enzyme” value in assay [1] (presence of activating esterase) is “concentration dependent increase in reaction rates”. Besides, the MUC5B reduction entry on Muc5B is reported as “reduce MUC5B”.
With `Cl.OC[C@@H](O)[C@@H](O)[C@H](O)[C@@H](O)CN(CCCCCCOc1ccc(CS)cc1)C[C@H](O)[C@@H](O)[C@H](O)[C@H](O)CO` [Compound 47, (2R,2′R,3R,3′R,4R,4′R,5S,5′S)-6,6′-((6-(4-(mercaptomethyl)phenoxy)hexyl)azanediyl)bis(hexane-1,2,3,4,5-pentaol) Hydrochloride], in assay [1] (parent molecule, same conditions as pro-drug test), the “time to fully reduce all available disulfides” value was under 10 s. For the same compound, the DTNB reduction rate in assay [2] amounted to 211.3 M⁻¹ s⁻¹. The “reducing capacity relative to 76 (Muc5B)” value at Muc5B (FIG. 3) is “retain the reducing capacity of 76”. Besides, at Muc5B, the MUC5B reduction result is reported as “reduce MUC5B”.
The compound `NCCCCCCOc1ccc(CS)cc1` [Compound 48] had a DTNB reduction rate in assay [2] of 190.8 M⁻¹ s⁻¹.
The same measure, in the same setting: the value for `Cl.OC[C@@H](O)[C@@H](O)[C@H](O)[C@H](O)CN(CCOc1ccc(CS)cc1)C[C@@H](O)[C@@H](O)[C@H](O)[C@H](O)CO` [Compound 58, (2R,2′R,3R,3′R,4R,4′R,5R,5′R)-6,6′-((2-(4-(mercaptomethyl)phenoxy)ethyl)azanediyl)bis(hexane-1,2,3,4,5-pentaol) Hydrochloride] was 258.31 M⁻¹ s⁻¹.
As to `CC(C)C(=O)SCc1ccc(OCCN(C[C@@H](O)[C@@H](O)[C@H](O)[C@H](O)CO)C[C@@H](O)[C@@H](O)[C@H](O)[C@H](O)CO)cc1.Cl` [Compound 59, S-4-(2-(bis((2R,3R,4R,5R)-2,3,4,5,6-pentahydroxyhexyl)amino)ethoxy)benzyl 2-methylpropanethioate Hydrochloride], in assay [1], the “Reduction Without Esterase” value is recorded as “No” and the “Reduction With Esterase” value was “Yes”.
In the case of `CO[C@@H]1OC(CS)[C@H](O)C(O)C1O` (some centres unmarked) [compound 95, reference compound], the Muc5b reduction result on Muc5B (FIG. 4, 30 mM) is recorded as “partial Muc5b reduction”.
